# Patent US12091561B2, “Recording method and recording apparatus” (Seiko Epson Corporation, priority 2021, dated 2024)
# Description: The solubility is measured as described below. A predetermined amount of a compound is mixed with 100 g of water in an environment at 25° C. and is then stirred for 30 minutes. […] As described above, when a predetermined amount of the compound is mixed with 100 g of water, the maximum predetermined amount which is judged to be dissolved is used as the solubility.
row,SOLUBILITY [g/100 g OF WATER],SMILES
1,>100 g/100 g OF WATER,"O=C1CCCCCN1 [ε-CAPROLACTAM, ε-caprolactam]"
2,14 g/100 g OF WATER,"CC(C)(O)CCC(C)(C)O [2,5-dimethyl-2,5-hexanediol]"
3,>100 g/100 g OF WATER,"OC1CCCCC1O (stereo not drawn) [1,2-CYCLOHEXANEDIOL, 1,2-cyclohexanediol]"
4,80 g/100 g OF WATER,"CC(C)(CO)CO [NEOPENTYL GLYCOL, neopentyl glycol]"
5,∞,"CC(O)CO (stereo not drawn) [PROPYLENE GLYCOL, propylene glycol]"
6,∞,"CC(C)(O)C(C)(C)O [PINACOL, pinacol]"
